From ChEMBL document CHEMBL1150976, “The selectivity of protein kinase inhibitors: a further update” (Biochem J, 2007) come the findings set out here.

Experiment [1] concerns the target Serine/threonine-protein kinase pim-2 (Homo sapiens, UniProt Q9P1W9). The experiment in a line: Percentage PIM2 activity remaining in the presence of 0.01uM inhibitor.
Experiment [2] concerns the target Casein kinase II (Homo sapiens) (UniProt P67870+P68400+P19784). The experiment in a line: Percentage CK2 activity remaining in the presence of 0.01uM inhibitor. The class given is protein-complex assay.
Experiment [3] concerns the target T1, Dual specificity tyrosine-phosphorylation-regulated kinase 2 (Homo sapiens) (UniProt Q92630).
T1 sequence (whole entry): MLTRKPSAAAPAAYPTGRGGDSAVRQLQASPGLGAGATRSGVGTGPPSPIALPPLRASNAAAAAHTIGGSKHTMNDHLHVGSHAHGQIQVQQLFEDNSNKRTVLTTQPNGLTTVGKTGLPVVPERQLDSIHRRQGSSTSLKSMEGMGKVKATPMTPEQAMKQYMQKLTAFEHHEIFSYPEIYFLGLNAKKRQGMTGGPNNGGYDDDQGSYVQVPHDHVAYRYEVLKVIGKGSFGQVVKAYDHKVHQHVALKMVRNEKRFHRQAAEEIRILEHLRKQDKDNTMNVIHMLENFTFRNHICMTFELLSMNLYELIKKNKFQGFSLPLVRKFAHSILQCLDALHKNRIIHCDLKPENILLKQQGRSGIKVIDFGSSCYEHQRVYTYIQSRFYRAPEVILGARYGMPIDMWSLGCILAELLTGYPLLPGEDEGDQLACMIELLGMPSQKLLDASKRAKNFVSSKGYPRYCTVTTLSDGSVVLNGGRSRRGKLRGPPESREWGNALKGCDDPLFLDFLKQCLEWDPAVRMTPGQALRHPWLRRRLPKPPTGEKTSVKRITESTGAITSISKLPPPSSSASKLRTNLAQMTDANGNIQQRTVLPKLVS
The experiment in a line: Percentage DYRK2 activity remaining in the presence of 0.1uM inhibitor.

Experiment [4] deals with Calcium/calmodulin-dependent protein kinase type 1 (Homo sapiens) (UniProt Q14012). The experiment in a line: Percentage CaMK1 activity remaining in the presence of 0.1uM inhibitor.
The target is the same in experiment [5]. The experiment in a line: Percentage CaMK1 activity remaining in the presence of 0.01uM inhibitor.
Experiment [6] addresses MAP kinase-interacting serine/threonine-protein kinase 2 (Homo sapiens) (UniProt Q9HBH9). The experiment in a line: Percentage MNK2 activity remaining in the presence of 0.01uM inhibitor.
The target in experiment [7] is MAP kinase-activated protein kinase 3 (Homo sapiens) (UniProt Q16644). The experiment in a line: Percentage MAPKAPK3 activity remaining in the presence of 0.01uM inhibitor.
The target in experiment [8] is T2, Dual specificity tyrosine-phosphorylation-regulated kinase 3 (Homo sapiens) (UniProt O43781).
T2 sequence (whole entry): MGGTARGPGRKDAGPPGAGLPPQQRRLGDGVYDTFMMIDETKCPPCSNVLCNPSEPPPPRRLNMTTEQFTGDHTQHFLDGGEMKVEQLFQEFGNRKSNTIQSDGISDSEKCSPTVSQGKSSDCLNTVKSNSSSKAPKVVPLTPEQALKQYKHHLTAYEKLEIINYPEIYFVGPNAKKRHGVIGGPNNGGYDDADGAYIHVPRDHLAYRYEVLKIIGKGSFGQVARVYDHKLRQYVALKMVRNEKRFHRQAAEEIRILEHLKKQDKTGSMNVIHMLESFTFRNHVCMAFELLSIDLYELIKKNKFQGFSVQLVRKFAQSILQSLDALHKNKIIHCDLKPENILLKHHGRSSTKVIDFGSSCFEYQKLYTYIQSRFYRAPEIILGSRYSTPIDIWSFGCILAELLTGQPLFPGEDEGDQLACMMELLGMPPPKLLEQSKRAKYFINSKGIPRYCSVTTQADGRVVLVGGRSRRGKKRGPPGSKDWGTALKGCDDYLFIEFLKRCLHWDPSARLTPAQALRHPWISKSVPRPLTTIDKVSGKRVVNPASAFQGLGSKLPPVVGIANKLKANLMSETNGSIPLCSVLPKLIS
The experiment in a line: Percentage DYRK3 activity remaining in the presence of 0.1uM inhibitor.

Experiment [9] addresses T3, Serine/threonine-protein kinase BRSK2 (Homo sapiens) (UniProt Q8IWQ3).
T3 sequence (whole entry): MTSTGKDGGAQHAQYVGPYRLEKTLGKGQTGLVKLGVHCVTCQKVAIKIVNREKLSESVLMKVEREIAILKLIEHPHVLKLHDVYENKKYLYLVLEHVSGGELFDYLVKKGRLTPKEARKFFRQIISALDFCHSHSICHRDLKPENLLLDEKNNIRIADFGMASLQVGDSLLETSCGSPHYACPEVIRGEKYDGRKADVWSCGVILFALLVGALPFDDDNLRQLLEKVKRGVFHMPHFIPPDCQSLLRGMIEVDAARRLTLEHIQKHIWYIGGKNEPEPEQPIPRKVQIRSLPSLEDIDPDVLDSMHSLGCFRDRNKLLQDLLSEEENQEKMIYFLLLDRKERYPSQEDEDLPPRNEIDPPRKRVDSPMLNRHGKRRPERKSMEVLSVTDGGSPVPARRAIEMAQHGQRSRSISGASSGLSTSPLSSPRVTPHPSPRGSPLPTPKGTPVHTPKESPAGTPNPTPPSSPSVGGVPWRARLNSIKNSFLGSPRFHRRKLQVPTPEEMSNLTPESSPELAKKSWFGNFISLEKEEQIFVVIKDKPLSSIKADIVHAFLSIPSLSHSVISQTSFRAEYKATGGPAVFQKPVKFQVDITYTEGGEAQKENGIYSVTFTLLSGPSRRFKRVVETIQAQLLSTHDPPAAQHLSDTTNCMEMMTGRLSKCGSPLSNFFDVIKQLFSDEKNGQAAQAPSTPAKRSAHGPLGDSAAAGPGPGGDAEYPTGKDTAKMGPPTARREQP
The experiment in a line: Percentage BRSK2 activity remaining in the presence of 0.01uM inhibitor.

The target in experiment [10] is Ribosomal protein S6 kinase alpha-1 (Homo sapiens) (UniProt Q15418). The experiment in a line: Percentage RSK1 activity remaining in the presence of 0.01uM inhibitor.
Experiment [11] concerns the target Dual specificity tyrosine-phosphorylation-regulated kinase 1A (Homo sapiens) (UniProt Q13627). The experiment in a line: Percentage DYRK1A activity remaining in the presence of 0.01uM inhibitor.
Experiment [12] concerns the target Serine/threonine-protein kinase PAK 6 (Homo sapiens) (UniProt Q9NQU5). The experiment in a line: Percentage PAK6 activity remaining in the presence of 0.01uM inhibitor.
For experiment [13], the target named is Rho-associated protein kinase 2 (Homo sapiens) (UniProt O75116). The experiment in a line: Percentage ROCK2 activity remaining in the presence of 0.01uM inhibitor.
Chain of Rho-associated protein kinase 2 (Homo sapiens) (O75116 whole entry, looked up): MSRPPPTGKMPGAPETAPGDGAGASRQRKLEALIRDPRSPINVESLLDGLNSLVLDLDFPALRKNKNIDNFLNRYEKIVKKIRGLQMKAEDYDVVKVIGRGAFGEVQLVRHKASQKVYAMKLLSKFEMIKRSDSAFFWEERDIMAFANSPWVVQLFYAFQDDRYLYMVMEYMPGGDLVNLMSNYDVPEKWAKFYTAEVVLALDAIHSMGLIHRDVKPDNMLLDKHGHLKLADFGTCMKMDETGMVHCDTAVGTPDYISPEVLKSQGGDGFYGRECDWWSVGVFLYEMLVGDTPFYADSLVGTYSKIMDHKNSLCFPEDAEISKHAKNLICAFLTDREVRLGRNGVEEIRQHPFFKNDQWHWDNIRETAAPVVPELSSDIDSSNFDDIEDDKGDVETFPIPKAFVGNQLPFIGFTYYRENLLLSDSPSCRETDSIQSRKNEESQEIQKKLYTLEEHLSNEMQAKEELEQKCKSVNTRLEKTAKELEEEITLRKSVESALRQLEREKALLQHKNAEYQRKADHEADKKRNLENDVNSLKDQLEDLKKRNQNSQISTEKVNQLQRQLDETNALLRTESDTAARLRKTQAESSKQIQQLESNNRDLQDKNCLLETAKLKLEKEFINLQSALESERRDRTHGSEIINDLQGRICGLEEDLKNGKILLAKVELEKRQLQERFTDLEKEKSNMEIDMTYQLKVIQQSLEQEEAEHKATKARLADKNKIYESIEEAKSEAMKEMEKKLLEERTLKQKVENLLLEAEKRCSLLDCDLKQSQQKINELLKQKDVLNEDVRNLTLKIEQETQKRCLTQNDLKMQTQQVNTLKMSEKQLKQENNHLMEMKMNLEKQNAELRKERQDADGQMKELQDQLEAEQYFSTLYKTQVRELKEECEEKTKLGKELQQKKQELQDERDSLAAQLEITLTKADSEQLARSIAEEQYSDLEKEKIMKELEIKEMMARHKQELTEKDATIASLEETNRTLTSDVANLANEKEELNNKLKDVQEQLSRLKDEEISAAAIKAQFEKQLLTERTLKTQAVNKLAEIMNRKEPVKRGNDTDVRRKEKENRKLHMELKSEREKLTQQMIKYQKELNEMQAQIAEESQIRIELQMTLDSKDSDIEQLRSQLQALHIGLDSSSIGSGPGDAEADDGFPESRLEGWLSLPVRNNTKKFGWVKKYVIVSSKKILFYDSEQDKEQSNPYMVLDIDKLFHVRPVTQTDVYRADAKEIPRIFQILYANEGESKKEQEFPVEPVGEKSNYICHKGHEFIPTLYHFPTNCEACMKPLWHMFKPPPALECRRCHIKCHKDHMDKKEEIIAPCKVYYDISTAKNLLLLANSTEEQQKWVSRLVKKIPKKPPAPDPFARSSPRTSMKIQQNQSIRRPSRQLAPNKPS

Chain of Ribosomal protein S6 kinase alpha-1 (Homo sapiens) (Q15418 whole entry): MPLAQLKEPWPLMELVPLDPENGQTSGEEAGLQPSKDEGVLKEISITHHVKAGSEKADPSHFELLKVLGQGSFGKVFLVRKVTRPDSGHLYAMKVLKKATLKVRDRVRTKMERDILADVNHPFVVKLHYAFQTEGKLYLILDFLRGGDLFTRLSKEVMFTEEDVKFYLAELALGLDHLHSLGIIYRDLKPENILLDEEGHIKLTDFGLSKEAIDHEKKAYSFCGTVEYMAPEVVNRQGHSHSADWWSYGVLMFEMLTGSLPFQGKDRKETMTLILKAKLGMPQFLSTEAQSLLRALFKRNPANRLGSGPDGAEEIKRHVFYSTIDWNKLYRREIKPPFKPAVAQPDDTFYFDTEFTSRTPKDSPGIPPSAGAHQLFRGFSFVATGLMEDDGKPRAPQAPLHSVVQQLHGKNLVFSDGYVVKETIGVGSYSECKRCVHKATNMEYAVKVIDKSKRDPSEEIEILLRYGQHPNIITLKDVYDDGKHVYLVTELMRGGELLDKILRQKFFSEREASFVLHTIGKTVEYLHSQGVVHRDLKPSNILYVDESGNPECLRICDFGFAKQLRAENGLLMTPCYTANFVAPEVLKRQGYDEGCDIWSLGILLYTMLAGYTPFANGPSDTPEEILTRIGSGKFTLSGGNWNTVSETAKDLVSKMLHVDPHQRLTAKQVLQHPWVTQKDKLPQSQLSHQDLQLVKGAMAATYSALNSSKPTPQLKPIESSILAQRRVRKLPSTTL
Chain of Calcium/calmodulin-dependent protein kinase type 1 (Homo sapiens) (Q14012 whole entry, looked up): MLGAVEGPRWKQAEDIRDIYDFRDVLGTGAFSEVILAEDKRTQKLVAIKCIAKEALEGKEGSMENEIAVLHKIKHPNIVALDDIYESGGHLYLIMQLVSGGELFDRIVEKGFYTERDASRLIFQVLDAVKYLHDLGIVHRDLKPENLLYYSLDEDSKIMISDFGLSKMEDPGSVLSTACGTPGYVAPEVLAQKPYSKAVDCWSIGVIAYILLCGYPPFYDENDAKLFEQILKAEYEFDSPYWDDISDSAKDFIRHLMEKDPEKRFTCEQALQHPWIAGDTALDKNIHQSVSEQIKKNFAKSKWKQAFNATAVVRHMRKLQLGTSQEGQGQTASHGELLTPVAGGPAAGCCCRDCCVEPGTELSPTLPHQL
Chain of Serine/threonine-protein kinase PAK 6 (Homo sapiens) (Q9NQU5 whole entry, looked up): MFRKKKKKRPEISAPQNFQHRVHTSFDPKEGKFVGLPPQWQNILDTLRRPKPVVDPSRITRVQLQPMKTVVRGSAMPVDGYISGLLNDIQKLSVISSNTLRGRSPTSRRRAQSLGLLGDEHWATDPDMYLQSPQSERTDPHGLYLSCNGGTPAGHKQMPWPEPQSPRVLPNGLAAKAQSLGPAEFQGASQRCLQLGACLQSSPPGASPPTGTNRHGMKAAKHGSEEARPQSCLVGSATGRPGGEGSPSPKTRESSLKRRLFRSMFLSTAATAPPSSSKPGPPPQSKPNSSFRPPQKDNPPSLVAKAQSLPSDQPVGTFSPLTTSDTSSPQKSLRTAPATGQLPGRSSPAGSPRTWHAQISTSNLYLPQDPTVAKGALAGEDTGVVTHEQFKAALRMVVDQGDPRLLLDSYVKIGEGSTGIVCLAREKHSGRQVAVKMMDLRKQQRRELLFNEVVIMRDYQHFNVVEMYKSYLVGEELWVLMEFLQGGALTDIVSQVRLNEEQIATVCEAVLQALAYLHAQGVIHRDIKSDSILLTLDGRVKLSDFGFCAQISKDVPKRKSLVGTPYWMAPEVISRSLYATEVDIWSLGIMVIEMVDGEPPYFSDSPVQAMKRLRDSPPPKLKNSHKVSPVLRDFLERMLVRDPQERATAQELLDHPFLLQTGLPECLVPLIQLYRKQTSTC
Chain of Serine/threonine-protein kinase pim-2 (Q9P1W9 whole entry, looked up): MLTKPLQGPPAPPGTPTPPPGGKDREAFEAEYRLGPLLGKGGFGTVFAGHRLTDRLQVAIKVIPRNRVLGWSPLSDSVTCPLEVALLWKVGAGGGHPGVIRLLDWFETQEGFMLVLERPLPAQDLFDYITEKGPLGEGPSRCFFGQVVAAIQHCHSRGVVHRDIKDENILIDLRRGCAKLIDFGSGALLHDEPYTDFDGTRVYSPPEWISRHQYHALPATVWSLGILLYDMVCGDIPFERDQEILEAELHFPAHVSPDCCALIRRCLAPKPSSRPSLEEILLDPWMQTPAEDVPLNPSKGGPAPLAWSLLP
Chain of MAP kinase-activated protein kinase 3 (Homo sapiens) (Q16644 whole entry, looked up): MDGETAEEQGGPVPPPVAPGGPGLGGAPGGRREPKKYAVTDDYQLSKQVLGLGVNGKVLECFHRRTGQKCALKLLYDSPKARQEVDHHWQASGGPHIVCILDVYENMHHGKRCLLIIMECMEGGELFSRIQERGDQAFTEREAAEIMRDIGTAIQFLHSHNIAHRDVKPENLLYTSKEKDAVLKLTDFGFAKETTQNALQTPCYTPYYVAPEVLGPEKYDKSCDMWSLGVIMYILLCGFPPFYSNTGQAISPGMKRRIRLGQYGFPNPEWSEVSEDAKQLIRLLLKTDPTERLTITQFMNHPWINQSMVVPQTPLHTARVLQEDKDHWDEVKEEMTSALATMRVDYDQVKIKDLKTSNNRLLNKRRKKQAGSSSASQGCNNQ
Chain of MAP kinase-interacting serine/threonine-protein kinase 2 (Homo sapiens) (Q9HBH9 whole entry, looked up): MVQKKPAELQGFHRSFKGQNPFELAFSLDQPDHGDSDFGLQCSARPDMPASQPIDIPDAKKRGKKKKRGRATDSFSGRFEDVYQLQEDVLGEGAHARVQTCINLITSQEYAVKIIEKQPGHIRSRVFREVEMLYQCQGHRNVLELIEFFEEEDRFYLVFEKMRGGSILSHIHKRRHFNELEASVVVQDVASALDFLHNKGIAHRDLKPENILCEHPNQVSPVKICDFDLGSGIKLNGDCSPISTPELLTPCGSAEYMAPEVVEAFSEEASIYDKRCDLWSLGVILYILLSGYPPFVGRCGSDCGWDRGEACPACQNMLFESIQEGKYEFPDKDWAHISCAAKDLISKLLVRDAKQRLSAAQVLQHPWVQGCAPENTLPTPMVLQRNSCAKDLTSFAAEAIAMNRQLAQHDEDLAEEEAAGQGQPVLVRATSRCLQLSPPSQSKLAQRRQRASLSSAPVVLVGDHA

As to `Cc1n[nH]c2ccc(-c3cncc(OC[C@@H](N)Cc4c[nH]c5ccccc45)c3)cc12`, the Activity was 59% in [1]; 96% in experiment [2]; 26% in [3] (filed as antagonist); 77% in experiment [4]; 89% in experiment [5]; 97% in experiment [6]. Also, the Activity in experiment [7] is 91%; in [8] (filed as antagonist), 8%; in [9] it was 88%; in experiment [10] it was 78%; in experiment [11] (filed as antagonist), 10%; in experiment [12], 87%. The Activity in experiment [13] (filed as antagonist) was 48%.
Consider `O=C(NCCCNc1nc(Nc2cccc(NC(=O)N3CCCC3)c2)ncc1I)c1cccs1`, for which the Activity was 108% in experiment [1]; 93% in experiment [2]; 76% in experiment [3]; 71% in experiment [4]; 86% in experiment [5]; 47% in experiment [6] (filed as antagonist). For the same compound, the Activity stood at 103% in experiment [7]; 65% in experiment [8]; 92% in experiment [9]; 100% in [10]; 94% in experiment [11]; 92% in experiment [12]. Also, the Activity in [13] was 90%.
For the compound `CN(C)C[C@@H]1CCn2cc(c3ccccc32)C2=C(C(=O)NC2=O)c2cn(c3ccccc23)CCO1`, the Activity in experiment [3] worked out at 85%; in [8], 64%.
With `Cn1c2ccccc2c2c3c(c4c5ccccc5n(CCC#N)c4c21)CNC3=O`, the Activity in experiment [3] (filed as antagonist) is 49%; in [4], 98%; in [8] (filed as antagonist), 28%.
Take `CC(C)[C@H](CO)Nc1nc(Nc2cccc(Cl)c2)c2ncn(C(C)C)c2n1` [PURVALANOLA]: the Activity in experiment [3] is 91%; in [4], 99%; in experiment [8], 89%.
In the same order, the values of `Cn1cc(C2=C(c3cn(CCCSC(=N)N)c4ccccc34)C(=O)NC2=O)c2ccccc21` are 90%, 91% and 55%.
Consider `CN[C@@H]1C[C@H]2O[C@@](C)([C@@H]1OC)n1c3ccccc3c3c4c(c5c6ccccc6n2c5c31)C(=O)N[C@H]4O` (stereo in doubt), for which the Activity was 73% in experiment [1]; 92% in experiment [2]; 86% in [5]; 103% in experiment [6]; 107% in experiment [7]; 27% in experiment [9] (filed as antagonist). Besides, the Activity in experiment [10] (filed as antagonist) was 25%; in experiment [11], 90%; in [12] (filed as antagonist) it was 35%; in experiment [13] it was 86%.
Turning to `CC(C)CCN1c2nc(Nc3cc(F)c(O)c(F)c3)ncc2N(C)C(=O)C1C` (stereo not given), the results for the Activity in experiment [3], in experiment [4] and in experiment [8] were 91%, 103% and 91%, respectively.
